The text below walks through data of PubChem BioAssay (NCI).

Common to all, as to assay: inhibition of tumour cell growth, NCI panel, 48 h
Test [1] deals with HS 578T breast.
For test [2], the system named is U251 CNS.
Test [3] concerns NCI-H23 lung.
The test system of test [4] is UACC-257 melanoma.
Test [5] deals with OVCAR-3 ovarian.
Test [6] has as its system A498 renal.
The subject of test [7] is SK-MEL-28 melanoma.
Test [8] relates to T-47D breast.
In test [9] the test system is HL-60(TB) leukemia.
Test [10] relates to OVCAR-5 ovarian.

The structures appear in SMILES notation.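 Following 48 hours of exposure in 96-well plates, responses at five concentrations were used to interpolate endpoints linearly. The concentration for 50% growth inhibition is given as GI50. TGI denotes the concentration required for complete inhibition of growth.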 A value given as a limit tells only on which side of the number the result lay.

Consider `COC(C(=O)[C@@H](O)[C@@H](C)O)[C@@H]1Cc2cc3cc(O[C@H]4C[C@@H](O[C@H]5C[C@@H](O)[C@H](O)C(C)O5)[C@H](O)C(C)O4)c(C)c(O)c3c(O)c2C(=O)[C@H]1O[C@H]1C[C@@H](O[C@H]2C[C@@H](O[C@H]3C[C@@H](O)[C@@H](O)C(C)O3)[C@@H](O)C(C)O2)[C@H](O)C(C)O1` (some centres undefined), for which the GI50 is 0.126 µM in test [1]; 0.121 µM in [2]; 0.242 µM in test [3]; 0.295 µM in test [4]; 0.232 µM in [5]; 0.0542 µM in test [6]. The GI50 in test [7] was 0.147 µM; in test [8], 0.106 µM; in test [9] it was 6.61 µM; in test [10] it was 0.485 µM. In addition, the TGI in [1] is 12.3 µM; in test [2], above 32.5 µM; in test [3], 9.05 µM; in [4] it was 2.04 µM; in test [5], 8.76 µM; in test [6], 0.278 µM. The TGI in test [7] is 1.93 µM; in [8], above 32.5 µM; in test [9] it was above 32.5 µM; in [10], above 32.5 µM.
Turning to `CCOC(=O)C1=C(N)Oc2cc(OC)ccc2C1c1ccc(F)c(F)c1` (centres undefined), the GI50 was 2.48 µM in test [1]; 1.84 µM in test [2]; 2.89 µM in test [3]; 11.5 µM in test [4]; 0.497 µM in [5]; 1.29 µM in test [6]. Further, the GI50 was 6.44 µM in test [7], 1.72 µM in test [8], 0.404 µM in [9] and 10.5 µM in test [10]. Besides, the TGI in [1] is 21.3 µM; in [2] it was 14.3 µM; in test [3], 18.4 µM; in test [4], 24 µM; in [5] it was 6.09 µM; in test [6] it was 11.9 µM. Besides, the TGI in test [7] stood at 21.9 µM; in [8], 20 µM; in test [9], 4.8 µM; in test [10] it was 24.1 µM.
Regarding `COc1cc2c(/C=C3/C(=O)Nc4c3ccc3ccccc43)c(Cl)[nH]c2cc1C`, the GI50 is 0.289 µM in test [1]; 0.0559 µM in [2]; 0.0152 µM in [3]; 0.316 µM in test [4]; 0.00854 µM in test [5]; above 50 µM in [6]. The GI50 was 17.3 µM in [7], above 50 µM in test [8], 0.0115 µM in [9] and 10.2 µM in test [10]. Further, the TGI in test [2] is 9.94 µM; in [3], 4.59 µM; in [4], above 50 µM; in [5] it was 0.0294 µM; in test [6], above 50 µM; in [7] it was above 50 µM. In addition, the TGI in test [8] was above 50 µM; in test [9] it was 0.661 µM; in test [10], above 50 µM.
In the case of `CCNCCNc1cc(C2CCCC2)c(C#N)c2nc3ccccc3n12`, the GI50 in test [1] was 3.23 µM; in [2], 2.21 µM; in test [3] it was 7.42 µM; in test [4], 2.58 µM; in test [5], 1.7 µM; in test [6], 2.67 µM. Moreover, the GI50 in test [7] is 1.84 µM; in test [8] it was 2.58 µM; in test [9] it was 2.01 µM; in test [10] it was 5.13 µM. Further, the TGI in [1] came out at 10.4 µM; in test [2], 4.27 µM; in test [3], 24.3 µM; in test [4], 4.74 µM; in test [5], 3.18 µM; in test [6] it was 8.32 µM. The TGI in [7] is 3.68 µM; in test [8], 7.14 µM; in test [9], 4.3 µM; in test [10], 19.9 µM.
For the compound `O=C(Nc1cc(Cl)cc(Cl)c1)c1ccc(NC2=C(Cl)C(=O)N(Cc3ccccc3)C2=O)cc1`, the GI50 in test [1] was 1.99 µM; in [2] it was 3.04 µM; in test [3] it was 4.16 µM; in test [4], 11.5 µM; in test [5], 1.99 µM; in test [6], 8.06 µM. The GI50 in test [7] is 41.9 µM; in test [8], 30.9 µM; in [9], 1.55 µM; in test [10], 4.68 µM. The TGI in test [1] was 5.49 µM; in [2], 12.8 µM; in test [3], 16.3 µM; in [4], 27.1 µM; in [5], 5.37 µM; in [6] it was 22.2 µM. In addition, the TGI in test [7] is above 100 µM; in test [8], above 100 µM; in test [9], 4.43 µM; in test [10], 17.8 µM.
